From patent US10093658B2, “Bifunctional compounds and use for reducing uric acid levels” (Acquist LLC, priority 2015, dated 2018) come the findings set out here.

pIC50: −log10 of the molar value. Values joined by “and” are separate entries in the source; they are usually repeats but may differ in a detail not shown here. Equal entries are not always repeated. Where two headings read alike, the source gives them in different places.

Test [1] addresses Xanthine oxidase (Homo sapiens (Human), UniProt P47989). Put plainly: Fluorescence-based xanthine oxidase activity assay. It counts as biochemical. The settings on record: for XO inhibition (in words): qualitative statement.
For test [2], the target named is URAT1 (SLC22A12) (Homo sapiens (Human), UniProt Q96S37). Put plainly: URAT1 (SLC22A12) cellular uptake assay, 3H-orotate transport in stably transfected URAT-1/CHO cells. As to conditions: for URAT1 inhibition (in words): qualitative statement.
Chain of URAT1 (SLC22A12) (Q96S37 whole entry): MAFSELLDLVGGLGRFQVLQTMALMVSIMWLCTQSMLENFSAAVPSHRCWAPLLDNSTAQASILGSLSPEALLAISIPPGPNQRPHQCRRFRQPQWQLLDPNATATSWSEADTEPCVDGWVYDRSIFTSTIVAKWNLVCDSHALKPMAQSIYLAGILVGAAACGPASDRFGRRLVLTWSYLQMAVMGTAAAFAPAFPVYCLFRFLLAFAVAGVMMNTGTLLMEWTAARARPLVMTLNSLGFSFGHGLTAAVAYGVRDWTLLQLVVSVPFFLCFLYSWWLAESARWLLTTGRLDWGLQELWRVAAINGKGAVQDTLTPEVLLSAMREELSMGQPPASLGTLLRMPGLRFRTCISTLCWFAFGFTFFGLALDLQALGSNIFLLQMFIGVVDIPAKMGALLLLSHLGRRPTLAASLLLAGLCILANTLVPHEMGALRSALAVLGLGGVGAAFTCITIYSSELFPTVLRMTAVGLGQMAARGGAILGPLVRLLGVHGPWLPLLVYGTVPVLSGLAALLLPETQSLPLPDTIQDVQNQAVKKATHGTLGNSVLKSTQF
[3] abbreviates: fluorescence-based assay, triplicate, 10 concentrations, read-out: Xanthine Oxidase IC50.
Where [4] appears, read: read-out: URAT1 IC50, URAT-1/CHO cells, 3H-orotate uptake, URAT1 assay as described herein.

Chain of Xanthine oxidase (P47989 whole entry, species assumed): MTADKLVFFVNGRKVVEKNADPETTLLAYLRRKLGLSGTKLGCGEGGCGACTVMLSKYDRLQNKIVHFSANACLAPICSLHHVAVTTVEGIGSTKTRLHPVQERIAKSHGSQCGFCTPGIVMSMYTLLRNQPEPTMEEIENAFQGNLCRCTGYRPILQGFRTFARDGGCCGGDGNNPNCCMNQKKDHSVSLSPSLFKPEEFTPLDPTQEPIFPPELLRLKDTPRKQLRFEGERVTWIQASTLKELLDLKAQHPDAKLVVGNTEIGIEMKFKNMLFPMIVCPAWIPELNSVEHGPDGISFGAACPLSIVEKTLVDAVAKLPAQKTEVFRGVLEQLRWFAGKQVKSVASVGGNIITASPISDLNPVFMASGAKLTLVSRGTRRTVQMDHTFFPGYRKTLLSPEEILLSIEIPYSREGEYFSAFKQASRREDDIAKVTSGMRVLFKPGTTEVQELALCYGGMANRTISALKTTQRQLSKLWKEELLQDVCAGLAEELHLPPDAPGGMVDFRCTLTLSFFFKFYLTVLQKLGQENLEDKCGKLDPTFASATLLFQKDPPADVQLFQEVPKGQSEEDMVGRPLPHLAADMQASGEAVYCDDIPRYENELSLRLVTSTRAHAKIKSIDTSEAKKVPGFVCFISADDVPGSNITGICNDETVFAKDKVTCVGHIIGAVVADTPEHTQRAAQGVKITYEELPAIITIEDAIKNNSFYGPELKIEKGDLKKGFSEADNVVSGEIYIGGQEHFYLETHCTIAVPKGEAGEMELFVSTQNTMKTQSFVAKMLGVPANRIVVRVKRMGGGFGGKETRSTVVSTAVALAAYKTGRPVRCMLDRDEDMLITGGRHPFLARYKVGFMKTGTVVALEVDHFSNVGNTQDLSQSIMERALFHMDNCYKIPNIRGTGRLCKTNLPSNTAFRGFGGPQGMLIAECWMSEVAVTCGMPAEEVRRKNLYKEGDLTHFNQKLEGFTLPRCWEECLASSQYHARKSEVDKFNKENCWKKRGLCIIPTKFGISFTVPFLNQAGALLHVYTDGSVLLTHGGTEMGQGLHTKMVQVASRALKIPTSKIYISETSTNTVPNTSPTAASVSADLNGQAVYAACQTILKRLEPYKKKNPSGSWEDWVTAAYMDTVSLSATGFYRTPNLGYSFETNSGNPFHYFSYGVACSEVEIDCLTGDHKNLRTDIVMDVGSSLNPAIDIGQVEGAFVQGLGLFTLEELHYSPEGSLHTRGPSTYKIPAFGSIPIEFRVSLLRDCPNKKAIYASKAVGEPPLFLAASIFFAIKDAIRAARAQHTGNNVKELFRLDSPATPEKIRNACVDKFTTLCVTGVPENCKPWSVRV

As a reminder, the pIC50 is the IC50 on a negative log10 scale, so that one unit is a factor of ten. For the compound `O=C(Nc1ccc(-c2noc(=O)[nH]2)cc1)c1c(O)[nH]c(=O)[nH]c1=O` [Formula (If), 6-hydroxy-2,4-dioxo-N-(4-(5-oxo-4,5-dihydro-1,2,4-oxadiazol-3-yl)phenyl)-1,2,3,4-tetrahydropyrimidine-5-carboxamide], the pIC50 was 5.32 and 5.11 in test [1] (setting [3]); 5.12 in test [2] (setting [4]). The “XO inhibition (in words)” value in test [1] is on record as “active against both targets”. The “URAT1 inhibition (in words)” value in test [2] is “active against both targets”.

As to `O=C(Nc1ccc(-n2cnnn2)cc1)c1c(O)[nH]c(=O)[nH]c1=O` [Formula (IIc), N-(4-(1H-tetrazol-1-yl)phenyl)-6-hydroxy-2,4-dioxo-1,2,3,4-tetrahydropyrimidine-5-carboxamide], the negative logarithm of the IC50 (pIC50) in test [1] (setting [3]) was 4.68.

Regarding `CS(=O)(=O)Nc1ccc(NC(=O)c2c(O)[nH]c(=O)[nH]c2=O)cc1` [Formula (Ib), 6-hydroxy-N-(4-(methylsulfonamido)phenyl)-2,4-dioxo-1,2,3,4-tetrahydropyrimidine-5-carboxamide], the pIC50 in test [1] (setting [3]) was 4.06.

For the compound `O=C(Nc1ccc(-c2cnn[nH]2)cc1)c1c(O)[nH]c(=S)[nH]c1=O` [Formula (IIf), N-(4-(1H-1,2,3-triazol-5-yl)phenyl)-6-hydroxy-4-oxo-2-thioxo-1,2,3,4-tetrahydropyrimidine-5-carboxamide], the negative logarithm of the IC50 (pIC50) in test [1] (setting [3]) was 7.22 and 7.05; in test [2] (setting [4]), 4.95. Also, the “XO inhibition (in words)” value in test [1] is given as “comparable to febuxostat”.

For the compound `O=C(Nc1ccc(O)c(CO)c1)c1c(O)[nH]c(=O)[nH]c1=O` [Formula (Id), 6-hydroxy-N-(4-hydroxy-3-(hydroxymethyl)phenyl)-2,4-dioxo-1,2,3,4-tetrahydropyrimidine-5-carboxamide], the pIC50 in test [1] is more than 5.00; in test [1] (setting [3]), 5.44; in test [2], more than 5.00; in test [2] (setting [4]), 5.14.

For the compound `O=C(Nc1ccc(-c2nnn[nH]2)cc1)c1c(O)[nH]c(=S)[nH]c1=O` [Formula (IIb), N-(4-(2H-tetrazol-5-yl)phenyl)-6-hydroxy-4-oxo-2-thioxo-1,2,3,4-tetrahydropyrimidine-5-carboxamide], the results for the pIC50 in test [1] (setting [3]) and in test [2] (setting [4]) were 6.41 and 3.83, respectively.

Regarding `O=C(Nc1ccc(NS(=O)(=O)C(F)(F)F)cc1)c1c(O)[nH]c(=O)[nH]c1=O` [Formula (Ic), 6-hydroxy-2,4-dioxo-N-(4-(trifluoromethylsulfonamido)phenyl)-1,2,3,4-tetrahydropyrimidine-5-carboxamide], the pIC50 in test [1] (setting [3]) was 3.70.

In the case of `O=C(Nc1ccc(-c2nnn[nH]2)cc1)c1c(O)[nH]c(=O)[nH]c1=O` [Formula (IIa), N-(4-(2H-tetrazol-5-yl)phenyl)-6-hydroxy-2,4-dioxo-1,2,3,4-tetrahydropyrimidine-5-carboxamide], the pIC50 is 6.17 in test [1] (setting [3]) and 5.02 in test [2] (setting [4]).

Regarding `O=C(Nc1ccc2n[nH]nc2c1)c1c(O)[nH]c(=O)[nH]c1=O` [Formula (IIIa), N-(1H-benzo[d][1,2,3]triazol-6-yl)-6-hydroxy-2,4-dioxo-1,2,3,4-tetrahydropyrimidine-5-carboxamide], the pIC50 was 5.05 in test [1] (setting [3]) and 5.87 in test [2] (setting [4]).

In the case of `NS(=O)(=O)c1ccc(NC(=O)c2c(O)[nH]c(=O)[nH]c2=O)cc1` [Formula (Ia), 6-hydroxy-2,4-dioxo-N-(4-sulfamoylphenyl)-1,2,3,4-tetrahydropyrimidine-5-carboxamide], the negative-log IC50 (pIC50) in test [1] (setting [3]) was not above 3.52.

Take `O=C(Nc1ccc(-c2noc(=O)[nH]2)cc1)c1c(O)[nH]c(=S)[nH]c1=O` [Formula (Ig), 6-Hydroxy-4-oxo-N-(4-(5-oxo-4,5-dihydro-1,2,4-oxadiazol-3-yl)phenyl)-2-thioxo-1,2,3,4-tetrahydropyrimidine-5-carboxamide]: the pIC50 in test [1] (setting [3]) is 5.48 and 5.10; in test [2] (setting [4]) it was less than 3.82. Besides, the “XO inhibition (in words)” value in test [1] was “acceptable XO inhibitor”. For the same compound, the “URAT1 inhibition (in words)” value in test [2] is listed as “poor URAT1 inhibitor”.

Take `O=C(Nc1ccc(-c2cnn[nH]2)cc1)c1c(O)[nH]c(=O)[nH]c1=O` [Formula (IIe), N-(4-(1H-1,2,3-triazol-5-yl)phenyl)-6-hydroxy-2,4-dioxo-1,2,3,4-tetrahydropyrimidine-5-carboxamide]: the pIC50 is 5.91 and 5.94 in test [1] (setting [3]); 6.16 in test [2] (setting [4]).
